We go through one compound from article PMC11397024, “Strategic Fluorination to Achieve a Potent, Selective, Metabolically Stable, and Orally Bioavailable Inhibitor of CSNK2” (Molecules, 2024).

Series [1] addresses T1, CSNK2A1 (Homo sapiens, UniProt P68400).
T1 construct: expressed in transfected cells; host or cells: HEK293
The series can be described thus: NanoBRET assay CSNK2A1. The class given is cell-based. The settings on record: HEK293 cells, singlicate, read-out: CSNK2A1 pIC50 (converted). The protocol:
Assays were run using a modified version of the previously published protocols. […] A transfection complex of DNA (10 μg/mL) was generated consisting of 9 μg/mL carrier DNA (Promega, Madison, WI, USA) and 1 μg/mL CSNK2A-NLuc fusion DNA in Opti-MEM without serum (Gibco). FuGENE HD (Promega) was added at 30 μL/mL to form a lipid–DNA complex. The solution was then mixed and incubated at room temperature for 20 min. The transfection complex was mixed with a 20× volume of HEK293 cells in DMEM/FBS to arrive at a final concentration of 200,000 cells/mL, and 100 μL/well was added to a 96-well plate that was incubated overnight at 37 °C and 5% CO2. The following day, the medium was removed via aspiration and replaced with 85 μL of Opti-MEM without phenol red. A total of 5 μL per well of 20× NanoBRET Tracer K10 (Promega) at 10 μM for CSNK2A1 or 5 μM for CSNK2A2 in Tracer Dilution Buffer (Promega N291B) was added to all wells, except the “no tracer” control wells. Test compounds (10 mM in DMSO) were diluted 100× in Opti-MEM media to prepare stock solutions and evaluated at 11 concentrations. A total of 10 μL per well of the 10-fold test compound stock solutions (final assay concentration of 0.1% DMSO) were added. […] The plates were read within 30 min on a GloMax Discover luminometer (Promega) equipped with a 450 nm BP filter (donor) and 600 nm LP filter (acceptor) using 0.3 s of integration time. […]

Series [2] is described as follows: Multi-dose PK study. The format is in vivo. The settings on record: Balb/c mice, 30 mg/kg p.o. every 12 h; total plasma concentration factored by fu. The procedure: In the multi-dose PK study, three male Balb/c mice (6–8 weeks old, 20–30 g) were dosed via oral (p.o.) administration of four doses of compound 2 (30 mg/kg) as a 10 mL/kg volume of 3 mg/mL solution in DMSO/PEG-400/Water (v/v/v, 10:30:60) every 12 h. At 2, 6, 12, 14, 24, 26, 36, 38, and 48 h after the first dose, 0.025 mL of blood was collected from the dorsal metatarsal vein at each time point. Each blood sample was transferred into a plastic microcentrifuge tube containing EDTA-K2 anticoagulant and mixed well with the anticoagulant, then placed on ice prior to centrifugation at 4000× g for 5 min at 4 °C to obtain plasma. The samples were stored in a freezer at −75 ± 15 °C prior to analysis. […] The final compound concentration was calculated by multiplying the detected concentration by a dilution factor of four.
Concentrations of the test compound in the plasma samples were determined using a Prominence LC-MS/MS system with a DGU-20A5R(C) degasser, LC-30AD pump, CBM-20A system controller, SIL-20AC HT autosampler; Rack changer II, HALO 90A ES-CN (2.7 μm, 2.1 × 50 mm) column, and AB Sciex Triple Quan 5500 LC/MS/MS instrument. […] After centrifugation at 4 °C and 4000 rpm for 15 min, the supernatant was diluted with ultrapure water at a ratio of 1:2 (v/v, 1:2), then 20 µL of diluted supernatant was injected into the LC/MS/MS system for quantitative analysis. […]

T1 sequence (P68400 whole entry): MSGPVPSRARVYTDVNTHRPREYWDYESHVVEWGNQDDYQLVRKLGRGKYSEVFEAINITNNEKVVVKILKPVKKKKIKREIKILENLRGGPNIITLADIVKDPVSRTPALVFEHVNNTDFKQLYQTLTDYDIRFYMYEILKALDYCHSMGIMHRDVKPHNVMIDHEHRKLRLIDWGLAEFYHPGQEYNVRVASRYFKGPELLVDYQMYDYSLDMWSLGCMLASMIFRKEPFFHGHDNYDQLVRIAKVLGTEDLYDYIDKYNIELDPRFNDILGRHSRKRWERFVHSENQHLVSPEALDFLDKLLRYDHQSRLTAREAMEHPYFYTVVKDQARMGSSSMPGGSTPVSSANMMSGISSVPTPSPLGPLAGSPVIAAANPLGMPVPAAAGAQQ

On to `CCC(=O)Nc1cc(Nc2cc(NC3CC3)n3ncc(C#N)c3n2)c(F)cc1N1CCC[C@H](NC)C1` [Compound 2, (S)-N-(5-((3-cyano-7-(cyclopropylamino)pyrazolo[1,5-a]pyrimidin-5-yl)amino)-4-fluoro-2-(3-(methylamino)piperidin-1-yl)phenyl)propionamide], for which the IC50 in series [1] is 7.94 nM. Moreover, the “free plasma Cpeak concentration” value in series [2] was 120 to 190 nM.
